According to patent US6136784A, “Amylin agonist pharmaceutical compositions containing insulin” (Amylin Pharmaceuticals, Inc., priority 1998, dated 2000):
Where two headings read alike, the source gives them in different places. One block for each substance: values may come before it. Positions of bridges follow the written chain, without caps; N, C: chain ends. No end group written: not given here.

What was measured:
[1] = system: insulin-stimulated glycogen synthesis in soleus muscle; test: Soleus muscle assay (inhibition of insulin-stimulated glycogen synthesis); assay type: cell-based, rat; conditions: 7.1 nM insulin
Procedure: Assays of biological activity of amylin agonists in the soleus muscle may be performed using previously described methods (Leighton, B. and Cooper, Nature, 335:632-635 (1988); Cooper, et al., Proc. Natl. Acad. Sci. USA 85:7763-7766 (1988)), in which amylin agonist activity may be assessed by measuring the inhibition of insulin-stimulated glycogen synthesis. The soleus muscle assay is also described below.
Determination of amylin agonist activity of compounds was carried out using the soleus muscle assay as follows. Male Harlan Sprague-Dawley rats of approximately 200 g mass were used in order to maintain mass of the split soleus muscle less than 40 mg. The animals were fasted for 4 hours prior to sacrifice by decapitation. The skin was stripped from the lower limb which was then pinned out on corkboard. The tendo achilles was cut just above os calcis and m. gastrocnemius reflected out from the posterior aspect of the tibia. M. soleus, a small 15-20 mm long, 0.5 mm thick flat muscle on the bone surface of m. gastrocnemius was then stripped clear and the perimysium cleaned off using fine scissors and forceps. […]
^14 C-glycogen determination was performed in a 7 mL scintillation vial. […] The remaining glycogen was redissolved in 1 mL water and 4 mL scintillation fluid and counted for ^14 C. […]

[2] = in vivo, sc; cited from earlier work
[3] = 28 days, cited from earlier work
[4] = self injected three times per day, 14 days, plus usual insulin; cited from earlier work
[5] = intravenous infusion; cited from earlier work
[6] = 30-microgram doses four times per day, 14 days; p=0.003; cited from earlier work
[7] = cited from earlier work
[8] = system: Harlan Sprague Dawley rats; test: Tritiated glucose gastric emptying assay; assay type: in vivo, rat; conditions: sc 1 minute before gavage of tritiated glucose
Source text: (§1) Methods of measuring the rate of gastric emptying are disclosed in, for example, Young et al., Diabetolocia, 38(6):642-648 (1995). In a phenol red method, which is described below, conscious rats receive by gavage an acoloric gel containing methyl cellulose and a phenol red indicator. Twenty minutes after gavage, animals are anesthetized using halothane, the stomach exposed and clamped at the pyloric and lower esophageal sphincters, removed and opened into an alkaline solution. Stomach content may be derived from the intensity of the phenol red in the alkaline solution, measured by absorbance at a wavelength of 560 nm. In a tritiated glucose method, which is described in Example 9 below, conscious rats are gavaged with tritiated glucose in water. The rats are gently restrained by the tail, the tip of which is anesthetized using lidocaine. Tritium in the plasma separated from tail blood is collected at various timepoints and detected in a beta counter. Test compounds are normally administered about one minute before gavage.
Conscious, non-fasted, Harlan Sprague Dawley rats were restrained by the tail, the tip of which was anesthetized using 2% lidocaine. Tritium in plasma separated from tail blood collected 0, 15, 30, 60, 90 and 120 minutes after gavage was detected in a beta counter. […]

[9] = system: diabetic BB rats; test: Phenol red gastric emptying assay, diabetic rats; assay type: in vivo, rat; conditions: sc bolus 5 minutes before gavage, ±0.18 log units
Source text: as §1, with “In a tritiated glucose method, which is described in Example 9 below, conscious rats are gavaged with tritiated glucose in water. The rats are gently restrained by the tail, the tip of which is anesthetized using lidocaine.” left out, “Test compounds are normally administered about one minute before gavage.” left out
(§2) Gastric emptying was measured using a modification (Plourde et al., Life Sci. 53:857-862 (1993)) of the original method of Scarpignato et al. (Arch. Int. Pharmacodyn. Ther. 246:286-295 (1980)). […] Stomach content was derived from the intensity of the phenol red in the alkaline solution, measured by absorbance at a wavelength of 560 nm. […] In other experiments, particulate gastric contents were centrifuged to clear the solution for absorbance measurements. Where the diluted gastric contents remained turbid, the spectroscopic absorbance due to phenol red was derived as the difference between that present in alkaline vs acetified diluent. […]

[10] = system: Harlan Sprague Dawley (non-diabetic) rats; test: Phenol red gastric emptying assay, normal rats; assay type: in vivo, rat; conditions: sc bolus 5 minutes before gavage, ±0.19 log units
Source text: as §1, with “In a tritiated glucose method, which is described in Example 9 below, conscious rats are gavaged with tritiated glucose in water. The rats are gently restrained by the tail, the tip of which is anesthetized using lidocaine.” left out, “Test compounds are normally administered about one minute before gavage.” left out
as §2

- EC50 [1]: 6.62 nM
Substance: ^2,7 Cyclo-[^2 Asp,^7 Lys]-h-Amylin (KDNTATKATQRLANFLVHSSNNFGAILSSTNVGSNTY; lactam 2-7; ends not checked; UniProt P10997 34-70, looked up, variant C2D C7K) [compound 2]

Substance: soluble insulin: soluble insulin given by subcutaneous injection
- Duration of action (lasts for) [2]: 4 to 6 h
- Time to absorption following subcutaneous injection [2]: 30 min

Substance: ^25,28,29 Pro-h-Amylin [compound 12]
- Lowering of fructosamine ([3]; 30 micrograms four times a day, p=0.029): 17.5 µmol/L
- Lowering of fructosamine ([3]; 60 micrograms four times a day, p=0.001): 22.6 µmol/L
- Lowering of fructosamine ([3]; 60 micrograms three times a day, p=0.003): 24.1 µmol/L
- Blood-glucose concentrations after a test meal compared to placebo [4]: statistically significant reduction
- Post-meal blood-glucose concentrations [5]: significantly reduced
- Reduction of average blood-glucose concentrations over a 24-hour observation period compared to placebo [6]: 35 mg/dL
- Tolerability ([7]; 30-microgram dose): well tolerated
- Lowering of fructosamine compared to placebo ([7]; 30-microgram doses four times per day, 28 days, p=0.003): 33 µmol/L
- Lowering of 24-hour average blood-glucose concentrations compared to placebo ([7]; 30-microgram doses four times per day, 28 days, p=0.009): 31 mg/dL

Substance: rat amylin
- ED50 derived from the logistic fit (plasma tritium AUC over 30 minutes) [8]: 0.35 µg
- ED50 for inhibition of gastric emptying [9]: 2.2 µg
- ED50 for inhibition of gastric emptying [10]: 0.43 µg

- EC50 [1]: 13.2 nM
Substance: ^25,28 Pro-h-Amylin [compound 6]
